Laboratory results published in article PMC8601123, “Drug delivery, biodistribution and anti-EGFR activity: theragnostic nanoparticles for simultaneous in vivo delivery of tyrosine kinase inhibitors and kinase activity biosensors” (Nanoscale, 2021).
Blank lines part the entries; values can stand above or below the compound they belong to.

Key:
EGFR [1] = assay: EGFR activation by EGF in SW48 cells, western blot; format: cell-based; conditions: serum-free 24 h, 1 h pre-treatment, EGF 100 ng/mL 5 min, western blot (Fig. S1)
Procedure: To test the ability of lipopolyplexes to deliver pDNA and inhibitor we used LIM1215 colon cancer cells. […] As a control, to check the response of the colorectal cancer cell lines to this class of TKI, we prepared an analogue of 1, with the disulfide-linked peptide replaced with an –OMe group. TKI analogue MeO-[PEG6-IPQA]
Optimization of EGFR inhibitor delivery to target cells
Figure S1. Effect of MeO-[PEG6-IPQA] (8) on EGFR activation by EGF in SW48 cells.
Cells were seeded in 6-well plate, 48 h later media was changed for media without serum. 24 h later cells were pre-treated with MeO-[PEG6-IPQA] (8) at indicated concentrations for 1 h followed by treatment with EGF (100 ng/mL) for 5 min. Cells were lysed and subjected to western blot analysis for activation/phosphorylation of EGFR and downstream signalling […]
(1 picture or pasted object on this page, not shown here)

EGFR [2] = target: T1, EGFR (Homo sapiens, UniProt P00533); assay: FRET-FLIM analysis of EGF-induced EGFR activity with Picchu-X biosensor in cells; format: cell-based; design: inhibition of EGF-induced EGFR activity (FRET-FLIM), difference between the groups: dose or concentration left out as unconfirmed
T1 construct: endogenous in cells; host or cells: LIM1215 colon cancer cells
From the text: We then prepared variant lipopolyplex formulations, based on CLA1 and including the EGFR inhibitor K16Cys-S-S-[PEG6-IPQA] 1 (Table 1). […] For efficient perfusion through the leaky endothelial cells of the tumor, lipopolyplexes must be <150 nm in diameter. […] We also carried out in vitro studies to check that the disulfide linker between K16Cys and PEG-IPQA was labile under pseudo-intracellular conditions (GSH/GSSG, HEPES, pH 7.2).[66] […] Next, we assessed the effectiveness of K16Cys-S-S-[PEG6-IPQA] 1 as an inhibitor of EGFR activity as a free therapeutic or within lipopolyplexes by utilizing FRET-FLIM and validating our results by western blot (WB) techniques. […]
A10 μM solution of the non-radiolabelled F1LA1 K16Cys-S-S-[PEG6-IPQA] lipopolyplex was applied to cells at 60% confluence in 96-well-plates. […] Time-domain fluorescence lifetime images were acquired via time correlated single photon counting (TCSPC) at a resolution of 256 by 256 pixels, with 256 time bins and 100 frames accumulated over 300 seconds, via excitation and emission filters suitable for the detection of GFP fluorescence (Excitation filter: Semrock FF01-470/22 nm; Beam Splitter: Edmund 48NT-392 30R/70 T; Emission filter: Semrock FF01-510/20 nm). […]

EGFR [3] = target: T1, EGFR; assay: Western blot of EGFR phosphorylation, time course of inhibitory effect; format: cell-based; conditions: for duration of EGFR inhibition: western blot (Fig. 2d)
From the text: (§1) We then prepared variant lipopolyplex formulations, based on CLA1 and including the EGFR inhibitor K16Cys-S-S-[PEG6-IPQA] 1 (Table 1). […] For efficient perfusion through the leaky endothelial cells of the tumor, lipopolyplexes must be <150 nm in diameter. […] We also carried out in vitro studies to check that the disulfide linker between K16Cys and PEG-IPQA was labile under pseudo-intracellular conditions (GSH/GSSG, HEPES, pH 7.2).[66] […] Next, we assessed the effectiveness of K16Cys-S-S-[PEG6-IPQA] 1 as an inhibitor of EGFR activity as a free therapeutic or within lipopolyplexes by utilizing FRET-FLIM and validating our results by western blot (WB) techniques. Activation of EGFR in cells treated with EGF (natural ligand for EGFR) was evident by decreasing lifetime of green fluorescent protein (GFP) in Picchu-X biosensor (Fig. 2c) and by appearance of phosphorylated EGFR band in WB image (Fig. 2d). In both cases pre-treatment with MeO-[PEG6-IPQA]
Fig. 2 Effect of different lipopolyplex formulations and drug loading on the expression of EGFR in targeted cells and inhibition of its activity upon stimulation with EGF. LIM1215 cells transfected with different lipopolyplexes without inhibitor (CLA1–4, NAE1–4, NGE1–4) (a) or with increasing amount of inhibitor per particle (F1LA1–3, F2LA1–3) (b) 24 h after seeding.
LIM1215, DiFi, SW48 and DLD1 colon cancer cell lines (independently validated by STR DNA fingerprinting at The Institute of Cancer Research (London, UK), were maintained in RPMI-1640 (Life Technologies Ltd). Antibodies: anti-EGFR (clone D38B1) anti-p-Y1173-EGFR (clone 53A5) were from Cell Signaling Technology Ltd.

LIM1215 xenografts = assay: In vivo radioactive organ biodistribution in LIM1215 xenograft mice; design: species or system CD1 nu/nu mice
Procedure: Fig. 3 In vivo radioactive organ biodistribution data presented in % Injected Dose per gram (%ID g^−1) for MeO-[PEG6-[^125I]-IPQA] 8 (black columns) and F1LA1 K16Cys-SMal-[PEG3-[^125I]-IPQA] 9 lipopolyplex (grey columns) 3, 6 and 24 h after injection. The tumor %ID g^−1 at 3, 6 and 24 h for both tracers is represented on a separate graph.
All animal studies were approved by the University College London Biological Services Ethical Review Committee and licensed under the UK Home Office regulations and the Guidance for the Operation of Animals (Scientific Procedures) Act 1986 (Home Office, London, United Kingdom). 12 female 6–8 weeks old CD1 nu/nu mice (Charles River Laboratories, UK) were injected subcutaneously in the right flank with 2 × 10^6 LIM1215 cells in 100 μL PBS. Once palpable tumors were measure in three orthogonal directions using the following equation: length × height × width × π/6. Once tumors had reached approximately 70–100 mm^3 mice were randomly divided into 2 groups; group 1 received an intravenous injection of 0.5Mbq MeO-[PEG6-[^125I]-IPQA] 8 (n = 6), group 2 received an intravenous injection of 0.5MBq F1LA1 K16Cys-SMal-[PEG3-[^125I]-IPQA]-lipopolyplex (n = 6). Mice were then culled at 3, 6 and 24 hours (n = 2 per time point) and all organs were taken, weighed and ^125I uptake quantified using a gamma counter (Wizard, PerkinElmer) to obtain % Injected dose per gram (%ID g^−1).

[4] = cited from earlier work
From the text: This approach also allowed us to further investigate the basis for the enhanced circulation and better tumour selectivity afforded by nanoparticle delivery of small molecule therapeutics. […] This phenomenon will need further investigation of potential differences in trafficking of the drug within the cell post-uptake, both in terms of the subcellular compartments involved and kinetics of intracellu ...

[5] = Cleavage of the disulfide linker under pseudo-intracellular conditions; format: physicochemical; conditions: reducing pseudo-intracellular conditions, GSH/GSSG, HEPES, pH 7.2 (Fig. S7)
From the text: as §1

lifetime of GFP in Picchu-X biosensor after EGF (EGFR [2]; pre-treatment for 1 h, then EGF (Fig. 2c)): remained at baseline levels | duration of EGFR inhibition (EGFR [3]; free agent): 24 h | time of highest tumor uptake (LIM1215 xenografts; i.v. 0.5 MBq, time points 3, 6 and 24 h, gradual reduction over 24 h): 3 h
Compound: C=CC(=O)Nc1cc2c(Nc3cccc(I)c3)ncnc2cc1OCCOCCOCCOCCOCCOCCOC [Compound 8, MeO-[PEG6-IPQA]]
inhibition of EGFR activation by EGF (EGFR [1]): potent inhibitor of EGFR activation | level of EGFR phosphorylation (EGFR [3]; pre-treatment for 1 h, EGF stimulation, western blot (Fig. 2d, line 8 vs. line 2)): significantly lower than in the sample without inhibitor | organ uptake (LIM1215 xenografts; i.v. 0.5 MBq, 3, 6 and 24 h, 125I gamma counting, %ID g-1 (Fig. 3)): high uptake in gallbladder and intestines at 3 and 6 h | clearance route (LIM1215 xenografts; i.v. 0.5 MBq, 125I gamma counting, n = 2 per time point): rapidly cleared via the hepatobiliary route

Compound: C=CC(=O)Nc1cc2c(Nc3cccc(I)c3)ncnc2cc1OCCOCCOCCOCCOCCOCCF [[^18F]F-PEG6-IPQA]
selectivity for tumour cells [4]: little selectivity for tumour cells | in vivo clearance ([4]; compared with Mo-IPQA): quicker in vivo clearance

inhibition of EGF-induced EGFR activity (FRET-FLIM), difference between the groups (EGFR [2]; free agent, P = 0.03 (Fig. 2c legend)): statistically significant | duration of EGFR inhibition (EGFR [3]; delivered within lipopolyplexes): up to 48 h | EGFR activity, inhibitor within lipopolyplexes (EGFR [3]; delivered within lipopolyplexes, western blot (Fig. 2d, lines 3-7 vs. line 2)): equally low levels as the free drug
Compound: K16Cys-S-S-[PEG6-IPQA] [Compound 1]
time to cleavage of disulfide linkage [5]: ≤ 5 min
